Results published in patent US12496302B2, “Compositions and methods for the treatment and diagnosis of cancer” (The General Hospital Corporation, priority 2020, dated 2025).

Columns and labels:
[1] = system: MD-MBA-231 xenograft tumors; experiment: MDA-MB-231 xenograft with PARPi; format: in vivo, BALB/c nude mice; conditions: injection every 2 days after day 7, 23 days
Procedure: FIGS. 9A-9G show SYCP2 is required for efficient homologous recombination. (FIG. 9A) Cell survival rate of HeLa and MDAMB231 via colony forming assay with the treatment of 2 μM, 4 μm, 6 μM, 8 μM, 16 μM of Olaparib (n=3, mean+/−S.D.). Western blot of SYCP2 overexpression in HeLa and MDA-MB-231 is shown in the left. (FIG. 9B) Cell survival rate of HeLa via colony forming assay with the treatment of 1 μM, 2 μm, 3 μM of Olaparib (n=3, mean+/−S.D.). Western blot of SYCP2 knockdown in Hela is shown in the left. (FIG. 9C) Scheme of Xenograft design using intraperitoneal injection of MBA-MD-231 into successful developed mouse model with virus-associated SYCP2 knockdown and control groups is shown in the left. PARPi was injected every 2 days after day 7. The graph is shown the recorded tumor size of each tested group with PARPi treatment or saline at each treatment day. (FIG. 9D). Numbers of SYCP2 IR induced foci (IRIF) colocalizing with γH2AX in MDAMB231 and HeLa cells. Cells were fixed and counted for foci numbers after 2 Gy IR followed up indicated recovery time (t=0 hr, 12 hr, 24 hr, and 48 hr) (n=30, mean+/−S.D). (FIG. 9E). […] Fold increase of mean intensity at sites of irradiation compared to mean intensity of nucleus expression is quantified (n=5, mean+/−SD). […] Numbers of RAD51 IRIF in siCtrl and siSYCP2 treated MDAMB231 and U2OS cells after 2 Gy IR and 1 hour recovery were counted (n=20, +/−SD). […]

[2] = system: cancer cell lines (HST578, MBAMD231, HCC1937, HCC1954); experiment: Cell survival (colony) assay with TRDMT1i alone, Example 19; format: cell-based; conditions: HCC1954 (HRD, high SYCP2)
Procedure: FIGS. 14A-14C show TRDMT1i alone reduce cancer cell survival in a dose-dependent manner. (FIG. 14A) Survival rate of HR proficient (HR+) HST578 cancer cells with and without siBRCA1 and/or TRDMT1i YW-1842 at indicated dose. The survival rate of these cells was analyzed (n=3, Mean±SD). (FIG. 14B) Survival rate of MBAMD231 (HR+) and HCC1937 (HRD) cells. The survival rate of these cells was analyzed (n=3, Mean±SD). (FIG. 14C) Cell survival rate in different cancer cell lines via colony-forming assay with the treatment of Imatinib at indicated dose (n=3, mean+/−S.D.). Cell lines are listed in order with the expression level from SYCP2high to SYCP2low.
HCC1500, HCC1954, BT549, MCF7 and MDAMB468 were cultured in Roswell Park Memorial Institute (RPMI) 1640 Medium (Sigma, R8758) with 10% (vol/vol) fetal bovine serum (FBS, XY Cell Culture, FBS-500) at 37° C., 5% CO2. siBRCA1 (L-003461-00, Dharmacon) was transfected with Lipofectamine RNAiMax (Invitrogen; Carlsbad, CA, USA). PARPi Olaparib (AZD2281/Ku-0059436, Sellekchem, S1060) and Pol theta inhibitor Novobiocin (Sigma) were used.
Cells were seeded in each 6-cm dish and cultured as described above. They were treated with drugs with indicated dose in medium after seeding. After 7-10 days, colonies were fixed and stained with 0.3% crystal violet in methanol, and the number of colonies was counted manually.

SKOV3 xenograft tumors = experiment: SKOV3 subcutaneous xenograft with Cisplatin; format: in vivo, BALB/c nude mice; conditions: Lv-shTRDMT1 infected SKOV3 xenografts, Cisplatin 5 mg/kg intratumoral twice per week for 3 weeks
Procedure: FIGS. 5A-5E show reduced TRDMT1 expression renders Cisplatin sensitization in vivo. (FIG. 5A) Lv-shTRDMT1 or Lv-NC transfected SKOV3 cells were subcutaneously injected into BALB/c nude mice, a week after injection, Cisplatin (5 mg/kg) or saline was injected into the center of the xenograft tumors twice per week for 3 consecutive weeks. (FIG. 5B) Representative images of tumors in xenografts transfected with LV-shTRDMT1/LV-NC with saline or Cisplatin treatment. (FIG. 5C) Tumor size of SKOV3 subcutaneous xenograft tumors (n=6, Mean±SD). (FIG. 5D) WB for TRDMT1 in tumor tissues collected from mice in each group (Tissues from six tumors in the same group were mixed into one sample). (FIG. 5E) IHC of TRDMT1 and KI-67 expression in ovarian cancer tissues of patients who were platinum-sensitive (PFS>6) and −resistant (PFS<6) Staining was assessed and scored on a scale of 0 (<5% staining) to 4 (>75% staining) in G. Quantification of IHC staining (n=38, PFS>6, n=24; PFS<6, n=14) was shown.
SKOV3 cells (1.0×10^6) were transfected with LV-TRDMT1-RNAi (gcAGAAGA AATTCACAGGAAA, SEQ ID NO: 15) or LV-NC-RNAi and injected […] into female nude mice which were then randomly divided into 4 groups (6 animals per condition). […] PFS was calculated from the time of surgery to the time of progression or recurrence. […]

Row | SMILES | tumor growth reduction by PARPi, SYCP2 knockdown versus control tumors ([1]; LV-siSYCP2 tumors) | tumor growth, control tumors ([1]; siControl tumors) | sensitivity of HCC1954 to PARPi [2] | xenograft tumor size (SKOV3 xenograft tumors)
1 | O=C(c1cc(Cc2n[nH]c(=O)c3ccccc23)ccc1F)N1CCN(C(=O)C2CC2)CC1 [olaparib] | more than control tumors | reduced the growth of control tumors | relatively resistant | 
2 | N.N.[Cl][Pt][Cl] [cisplatin] |  |  |  | grew statistically smaller
